From publication PMC9979163, “Discovery and functional characterization of N-(thiazol-2-yl)-benzamide analogs as the first class of selective antagonists of the Zinc-Activated Channel (ZAC)” (Biochemical pharmacology, 2021) come the findings set out here.

One assay has as its target T1, ZAC (Homo sapiens, UniProt Q401N2).
T1 sequence (Q401N2 26-412): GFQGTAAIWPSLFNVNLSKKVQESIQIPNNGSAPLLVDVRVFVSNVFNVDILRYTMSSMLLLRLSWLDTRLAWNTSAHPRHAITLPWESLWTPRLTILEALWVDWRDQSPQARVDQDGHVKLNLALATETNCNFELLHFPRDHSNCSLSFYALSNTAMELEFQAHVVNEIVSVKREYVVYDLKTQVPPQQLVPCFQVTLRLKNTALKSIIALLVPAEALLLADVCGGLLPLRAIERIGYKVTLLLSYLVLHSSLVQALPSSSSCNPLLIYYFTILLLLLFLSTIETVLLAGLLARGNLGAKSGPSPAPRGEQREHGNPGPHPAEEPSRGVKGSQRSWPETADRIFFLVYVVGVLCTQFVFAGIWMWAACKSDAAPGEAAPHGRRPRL
The experiment in a line: FMP assay at ZAC-HEK293 cells. The assay is classed as cell-based. The method, then: The screening of the 1,680 compounds in the compound library for antagonist activity at the ZAC-HEK293 cell line was performed in the FMP assay essentially as previously described. The day before the assay, cells were split into poly-D-lysine-coated black 96-well plates with clear bottoms (BD Biosciences, Palo Alto, CA) (6 × 10^4 cells/well). The following day, the culture medium was aspirated and the wells were washed once with 100 μl assay buffer (140 mM NaCl, 4.7 mM KCl, 2.5 mM CaCl2, 1.2 mM MgCl2, 11 mM HEPES, 10 mM D-glucose, pH 7.4), after which 100 μl assay buffer supplemented with FMP dye (0.5 mg/ml) and the various test compounds were added to the wells. The plate was then incubated at 37 °C for 30 min and assayed in a NOVOStar plate reader (BMG Labtechnologies, Offenburg, Germany) measuring emission at 560 nm caused by excitation at 530 nm before and up to 1 min after the addition of 33 μl of agonist solution. In the screening, the 1,680 compounds in the compound library were tested at assay concentrations in the 10–30 μM range, using Cu^2+ as agonist at an assay concentration of 200 μM.
Data from the FMP assay was analysed using KaleidaGraph 3.08 (Synergy Software, Reading, PA). Concentration-response curves for Cu^2+ and concentration-inhibition curves for compound 1 were constructed based on the difference in the relative fluorescence units (RFU) between the maximal fluorescence recorded before and after application of Cu^2+. The data were fitted to sigmoidal curves with variable slopes using nonlinear regression, and EC50 (Cu^2+) and IC50 (compound 1) values were derived from these equations.

The target of the next assay is T2, hEAAT3 (Homo sapiens, UniProt P43005).
T2 construct: expressed in transfected cells
T2 sequence (P43005 1-524): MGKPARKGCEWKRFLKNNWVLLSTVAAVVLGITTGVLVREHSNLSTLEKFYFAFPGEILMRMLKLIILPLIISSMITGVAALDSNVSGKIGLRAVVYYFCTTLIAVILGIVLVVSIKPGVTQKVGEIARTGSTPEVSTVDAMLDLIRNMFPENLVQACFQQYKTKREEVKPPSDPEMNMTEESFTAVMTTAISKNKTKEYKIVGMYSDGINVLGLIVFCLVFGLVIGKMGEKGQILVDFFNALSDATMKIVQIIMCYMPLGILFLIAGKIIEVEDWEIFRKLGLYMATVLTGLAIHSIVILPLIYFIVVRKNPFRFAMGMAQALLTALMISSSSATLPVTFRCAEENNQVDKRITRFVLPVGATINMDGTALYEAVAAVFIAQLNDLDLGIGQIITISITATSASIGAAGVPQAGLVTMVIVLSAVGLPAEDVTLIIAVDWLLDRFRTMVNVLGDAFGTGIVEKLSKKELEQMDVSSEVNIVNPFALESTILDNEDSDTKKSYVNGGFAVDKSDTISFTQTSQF
The experiment in a line: FMP assay at hEAAT3-HEK293 cells (glutamate-induced response). In kind it is cell-based. The note with it: concentrations up to 100 μM, data not shown.

The term IC50 denotes the concentration needed to halve the response being measured.

Consider `COC(=O)c1sc(NC(=O)c2cc(Br)ccc2Cl)nc1C` [compound 1, 2-(5-bromo-2-chlorobenzamido)-4-methylthiazole-5-methyl ester], for which, on ZAC, the concentration for half-maximal inhibition (IC50) worked out at 6.1 µM. For the same compound, at hEAAT3, the “Effect on glutamate-induced response” value was “did not affect”.
